According to patent publication US20200361895A1, “NOVEL SULFONAMIDE CARBOXAMIDE COMPOUNDS” (Inflazome Limited, priority 2017, published 2020):
Counter-ions that a name gives are not always drawn.

biological target: NLRP3 (Homo sapiens, UniProt Q96P20); assay: THP-1 cells pyroptosis assay (LPS + nigericin, resazurin readout; THP IC50); type: cell-based; design: Seed THP-1 cells (25,000 cells/well) containing 1.0 μg/ml LPS in 40 μl of RPMI medium; host or cells: THP-1 cells
Method: THP-1 cells (ATCC #TIB-202) were grown in RPMI containing L-glutamine (Gibco #11835) supplemented with 1 mM sodium pyruvate (Sigma #S8636) and penicillin (100 units/ml)/streptomycin (0.1 mg/ml) (Sigma #P4333) in 10% Fetal Bovine Serum (FBS) (Sigma #F0804). The cells were routinely passaged and grown to confluency (˜10^6 cells/ml). On the day of the experiment, THP-1 cells were harvested and resuspended into RPMI medium (without FBS). The cells were then counted and viability (>90%) checked by Trypan blue (Sigma #T8154). Appropriate dilutions were made to give a concentration of 625,000 cells/ml. To this diluted cell solution was added LPS (Sigma #L4524) to give a 1 μg/ml Final Assay Concentration (FAC). 40 μl of the final preparation was aliquoted into each well of a 96-well plate. The plate thus prepared was used for compound screening.
The following method step-by-step assay was followed for compound screening. • 1. Seed THP-1 cells (25,000 cells/well) containing 1.0 μg/ml LPS in 40 μl of RPMI medium (without FBS) in 96-well, black walled, clear bottom cell culture plates coated with poly-D-lysine (VWR #734-0317) • 2. Add 5 μcompound (8 points half-log dilution, with 10 μM top dose) or vehicle (DMSO 0.1% FAC) to the appropriate wells • 3. Incubate for 3 hrs at 37° C. and 5% CO2 • 4. Add 5 μnigericin (Sigma #N7143) (FAC 5 μM) to all wells • 5. Incubate for 1 hr at 37° C. and 5% CO2 • 6. At the end of the incubation period, spin plates at 300×g for 3 mins and remove supernatant • 7. Then add 50 μl of resazurin (Sigma #R7017) (FAC 100 μM resazurin in RPMI medium without FBS) and incubate plates for a further 1-2 hrs at 37° C. and 5% CO2 • 8. Plates were read in an Envision reader at Ex 560 nm and Em 590 nm • 9. IC50 data is fitted to a non-linear regression equation (log inhibitor vs response-variable slope 4-parameters)

Sequence of NLRP3 (Q96P20 whole entry): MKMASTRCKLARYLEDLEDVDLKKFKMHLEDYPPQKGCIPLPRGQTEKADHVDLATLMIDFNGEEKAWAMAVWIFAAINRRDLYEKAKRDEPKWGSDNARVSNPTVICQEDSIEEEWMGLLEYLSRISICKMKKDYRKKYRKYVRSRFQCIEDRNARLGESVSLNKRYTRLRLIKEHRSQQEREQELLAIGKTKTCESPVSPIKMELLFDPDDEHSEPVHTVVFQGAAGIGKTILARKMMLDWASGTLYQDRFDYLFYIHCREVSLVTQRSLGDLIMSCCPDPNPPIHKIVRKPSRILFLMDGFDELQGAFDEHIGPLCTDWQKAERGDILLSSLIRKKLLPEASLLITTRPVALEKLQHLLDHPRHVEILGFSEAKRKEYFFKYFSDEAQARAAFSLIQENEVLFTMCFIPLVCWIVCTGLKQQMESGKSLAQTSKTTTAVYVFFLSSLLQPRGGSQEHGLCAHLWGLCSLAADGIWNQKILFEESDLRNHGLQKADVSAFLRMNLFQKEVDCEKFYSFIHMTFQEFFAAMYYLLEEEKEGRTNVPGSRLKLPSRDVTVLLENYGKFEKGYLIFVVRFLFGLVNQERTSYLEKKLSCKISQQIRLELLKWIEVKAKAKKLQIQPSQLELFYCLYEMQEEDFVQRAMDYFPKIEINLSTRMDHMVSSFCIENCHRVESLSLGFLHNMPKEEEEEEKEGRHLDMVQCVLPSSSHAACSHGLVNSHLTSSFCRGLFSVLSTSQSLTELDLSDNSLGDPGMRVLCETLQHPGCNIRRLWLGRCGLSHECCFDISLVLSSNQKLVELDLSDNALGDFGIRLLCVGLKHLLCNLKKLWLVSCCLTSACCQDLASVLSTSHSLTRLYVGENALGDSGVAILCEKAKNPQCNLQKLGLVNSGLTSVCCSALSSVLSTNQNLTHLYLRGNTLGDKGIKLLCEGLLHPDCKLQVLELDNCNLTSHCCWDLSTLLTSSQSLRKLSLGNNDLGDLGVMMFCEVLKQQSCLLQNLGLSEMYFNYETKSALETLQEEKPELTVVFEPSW

Q: With `CC(C)CS(=O)(=O)NC(=O)Nc1c(-c2ccnc(C#N)c2)cc(F)cc1C(C)C` [Example 131, N-((2-(2-Cyanopyridin-4-yl)-4-fluoro-6-isopropylphenyl)carbamoyl)-2-methylpropane-1-sulfonamide] as the molecule, how does the IC50 read?
A: ≤ 10 µM

Q: With `CC(C)c1cc(F)cc(-c2cnoc2)c1NC(=O)NS(=O)(=O)c1ccn(C(C)C)n1` [Example 7, N-((4-Fluoro-2-iso-propyl-6-(isoxazol-4-yl)phenyl)carbamoyl)-1-iso-propyl-1H-pyrazole-3-sulfonamide] as the molecule, how does the IC50 read?
A: ≤ 5 µM

Q: How did the IC50 turn out when `COc1cc(-c2ccc3c(c2NC(=O)NS(=O)(=O)C2CN(C4CCC4)C2)CCC3)ccn1` [Example 80, 1-Cyclobutyl-N-((5-(2-methoxypyridin-4-yl)-2,3-dihydro-1H-inden-4-yl)carbamoyl)azetidine-3-sulfonamide] was run?
A: ≤ 0.5 µM

Q: `COCCCS(=O)(=O)NC(=O)Nc1c(-c2ccnc(C#N)c2)cc(F)cc1C(C)C` [Example 154, N-((2-(2-Cyanopyridin-4-yl)-4-fluoro-6-isopropylphenyl)carbamoyl)-3-methoxypropane-1-sulfonamide] was tested. Which IC50 did it give?
A: ≤ 5 µM

Q: Which IC50 does the source give for `CCN(CCCS(=O)(=O)NC(=O)Nc1c(-c2ccnc(OC)c2)cc(F)cc1C(C)C)Cc1ccccc1` [Example 150, 3-(Benzyl(ethyl)amino)-N-((4-fluoro-2-isopropyl-6-(2-methoxypyridin-4-yl)phenyl)carbamoyl)propane-1-sulfonamide] here?
A: ≤ 0.5 µM

Q: For `CC(C)c1cc(F)cc(-c2ccnc(N(C)C)c2)c1NC(=O)NS(=O)(=O)c1ccn(C(C)C)n1` [Example 50, N-((2-(2-(Dimethylamino)pyridin-4-yl)-4-fluoro-6-isopropylphenyl)carbamoyl)-1-isopropyl-1H-pyrazole-3-sulfonamide], which IC50 is on record?
A: ≤ 5 µM

Q: How did the IC50 turn out when `CCN(CC)CCCS(=O)(=O)NC(=O)Nc1c(-c2ccnc(C#N)c2)cc(F)cc1C(C)C` [Example 146, N-((2-(2-Cyanopyridin-4-yl)-4-fluoro-6-isopropylphenyl)carbamoyl)-3-(diethylamino)propane-1-sulfonamide] was run?
A: ≤ 1 µM

Q: For `CCN(CC)CCCS(=O)(=O)NC(=O)Nc1c(-c2ccnc(OC)c2)cc(F)cc1C(C)C` [Example 147, 3-(Diethylamino)-N-((4-fluoro-2-isopropyl-6-(2-methoxypyridin-4-yl)phenyl)carbamoyl)propane-1-sulfonamide], which IC50 is on record?
A: ≤ 0.5 µM

Q: With `CC(C)n1ccc(S(=O)(=O)NC(=O)Nc2c(-c3ccnc(OCCN(C)C)c3)ccc3c2CCC3)n1` [Example 302, N-((5-(2-(2-(Dimethylamino)ethoxy)pyridin-4-yl)-2,3-dihydro-1H-inden-4-yl)carbamoyl)-1-isopropyl-1H-pyrazole-3-sulfonamide, sodium salt] as the molecule, how does the IC50 read?
A: ≤ 5 µM

Q: For `CC(C)c1cc(F)cc(-c2cncc(F)c2)c1NC(=O)NS(=O)(=O)c1ccn(C(C)C)n1` [Example 21, N-((4-Fluoro-2-(5-fluoropyridin-3-yl)-6-isopropylphenyl)carbamoyl)-1-iso-propyl-1H-pyrazole-3-sulfonamide, partial ammonium salt], which IC50 is on record?
A: ≤ 5 µM

Q: How did the IC50 turn out when `Cc1ccncc1-c1cc(F)cc(C(C)C)c1NC(=O)NS(=O)(=O)c1ccn(C(C)C)n1` [Example 20, N-((4-Fluoro-2-iso-propyl-6-(4-methylpyridin-3-yl)phenyl)carbamoyl)-1-iso-propyl-1H-pyrazole-3-sulfonamide, partial ammonium salt] was run?
A: ≤ 5 µM

Q: For `O=C(Nc1c2c(nn1-c1ccncc1)CCC2)NS(=O)(=O)c1ccn(C2CC2)n1` [Example 273, 1-Cyclopropyl-N-((2-(pyridin-4-yl)-2,4,5,6-tetrahydrocyclopenta[c]pyrazol-3-yl)carbamoyl)-1H-pyrazole-3-sulfonamide], which IC50 is on record?
A: ≤ 5 µM

Q: For `CC(C)c1cc(F)cc(-c2ccnc(C#N)c2)c1NC(=O)NS(=O)(=O)C1CN(Cc2cccnc2)C1` [Example 86, N-((2-(2-Cyanopyridin-4-yl)-4-fluoro-6-isopropylphenyl)carbamoyl)-1-(pyridin-3-ylmethyl)azetidine-3-sulfonamide], which IC50 is on record?
A: ≤ 10 µM
